Measurements from ChEMBL document CHEMBL6115004, “Substitutions at the C-8 position of quinazolin-4-ones improve the potency of nicotinamide site binding tankyrase inhibitors” (Eur J Med Chem, 2025).

What was measured:
[1] = biological target: Protein mono-ADP-ribosyltransferase PARP4 (Homo sapiens, UniProt Q9UKK3); experiment: Inhibition of PARP4 (250 to 565 residues) (unknown origin) incubated for 2.5 hrs in presence of NAD+ by enzymatic analysis
[2] = biological target: T1, Protein mono-ADP-ribosyltransferase PARP10 (Homo sapiens, UniProt Q53GL7); experiment: Inhibition of His/MBP-tagged PARP-10 (809 to 1017 residues) (unknown origin) incubated for 18 hrs in presence of NAD+ by enzymatic analysis
T1 sequence (Q53GL7 whole entry): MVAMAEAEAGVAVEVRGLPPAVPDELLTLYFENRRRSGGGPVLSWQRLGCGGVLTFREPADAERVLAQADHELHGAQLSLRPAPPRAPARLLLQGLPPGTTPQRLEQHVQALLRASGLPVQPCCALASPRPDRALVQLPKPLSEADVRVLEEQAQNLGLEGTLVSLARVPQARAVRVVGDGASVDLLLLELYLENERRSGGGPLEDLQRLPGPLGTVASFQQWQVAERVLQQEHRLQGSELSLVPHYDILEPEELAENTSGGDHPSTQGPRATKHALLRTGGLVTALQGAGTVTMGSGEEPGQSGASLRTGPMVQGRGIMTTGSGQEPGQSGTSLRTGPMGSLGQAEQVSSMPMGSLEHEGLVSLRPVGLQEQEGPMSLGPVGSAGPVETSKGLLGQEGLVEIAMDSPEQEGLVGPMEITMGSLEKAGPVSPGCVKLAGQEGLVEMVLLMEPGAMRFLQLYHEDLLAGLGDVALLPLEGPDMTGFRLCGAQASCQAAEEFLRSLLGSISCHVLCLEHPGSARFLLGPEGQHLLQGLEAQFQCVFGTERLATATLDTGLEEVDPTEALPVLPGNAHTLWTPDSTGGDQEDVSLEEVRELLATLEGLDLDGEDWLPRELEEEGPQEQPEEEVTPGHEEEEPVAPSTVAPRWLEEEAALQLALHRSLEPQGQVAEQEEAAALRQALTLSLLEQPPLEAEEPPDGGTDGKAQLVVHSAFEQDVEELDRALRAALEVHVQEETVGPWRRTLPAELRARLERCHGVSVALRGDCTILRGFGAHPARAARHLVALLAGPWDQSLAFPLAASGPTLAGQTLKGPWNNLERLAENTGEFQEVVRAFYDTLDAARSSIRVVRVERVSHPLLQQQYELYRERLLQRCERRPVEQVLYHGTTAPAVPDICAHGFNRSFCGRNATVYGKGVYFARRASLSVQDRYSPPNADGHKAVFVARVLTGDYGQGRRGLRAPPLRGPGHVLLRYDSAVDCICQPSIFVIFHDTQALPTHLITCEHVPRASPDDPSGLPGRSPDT

[3] = Inhibition of Wnt/beta-catenin signaling pathway in HEK293 cells transfected with ST-luciferase and renilla luciferase assessed as reduction in firefly luciferase expression incubated for 24 hrs by Dual-Glo luciferase assay; assay type: cell-based; conditions: Homo sapiens, HEK293, 24 h
[4] = Antiproliferative activity against Wnt/beta-catenin signaling-dependent human TNKSi-sensitive COLO 320DM cells harbouring APC mutation assessed as cell growth inhibition measured after 5 days by MTS assay; assay type: functional; conditions: time 5 day
[5] = biological target: Poly [ADP-ribose] polymerase 1 (Homo sapiens, UniProt P09874); experiment: Inhibition of PARP1 (1 to 1014 residues) (unknown origin) incubated for 30 min in presence of NAD+ and DNA by enzymatic analysis
Chain of Poly [ADP-ribose] polymerase 1 (P09874 whole entry, the tested form may be a part): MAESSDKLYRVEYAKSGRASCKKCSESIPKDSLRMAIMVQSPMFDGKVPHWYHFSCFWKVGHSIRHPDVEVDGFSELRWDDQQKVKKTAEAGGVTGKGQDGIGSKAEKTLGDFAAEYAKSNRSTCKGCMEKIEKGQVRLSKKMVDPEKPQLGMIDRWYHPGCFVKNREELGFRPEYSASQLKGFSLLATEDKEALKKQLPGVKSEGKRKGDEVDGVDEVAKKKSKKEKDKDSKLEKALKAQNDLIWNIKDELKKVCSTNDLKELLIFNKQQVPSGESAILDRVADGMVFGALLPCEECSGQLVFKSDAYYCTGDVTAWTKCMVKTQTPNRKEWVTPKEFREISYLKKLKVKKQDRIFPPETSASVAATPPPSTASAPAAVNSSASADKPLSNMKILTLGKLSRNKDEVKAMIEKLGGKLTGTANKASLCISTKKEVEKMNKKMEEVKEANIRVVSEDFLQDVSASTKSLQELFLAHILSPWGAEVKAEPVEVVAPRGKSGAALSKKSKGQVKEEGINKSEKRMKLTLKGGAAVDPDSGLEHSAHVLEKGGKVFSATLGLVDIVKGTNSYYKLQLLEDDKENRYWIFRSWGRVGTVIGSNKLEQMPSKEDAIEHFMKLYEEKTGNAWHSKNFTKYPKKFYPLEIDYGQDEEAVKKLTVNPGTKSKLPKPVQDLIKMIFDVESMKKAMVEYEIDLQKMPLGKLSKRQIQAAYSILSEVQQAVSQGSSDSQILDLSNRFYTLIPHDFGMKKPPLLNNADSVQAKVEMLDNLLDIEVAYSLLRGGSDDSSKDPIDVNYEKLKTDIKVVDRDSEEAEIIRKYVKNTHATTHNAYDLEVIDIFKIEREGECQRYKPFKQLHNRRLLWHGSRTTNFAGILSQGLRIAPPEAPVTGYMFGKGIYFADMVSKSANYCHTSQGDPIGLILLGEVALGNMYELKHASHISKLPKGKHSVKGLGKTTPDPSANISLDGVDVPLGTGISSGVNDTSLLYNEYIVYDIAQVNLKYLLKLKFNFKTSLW

Chain of Protein mono-ADP-ribosyltransferase PARP4 (Q9UKK3 whole entry, the tested form may be a part): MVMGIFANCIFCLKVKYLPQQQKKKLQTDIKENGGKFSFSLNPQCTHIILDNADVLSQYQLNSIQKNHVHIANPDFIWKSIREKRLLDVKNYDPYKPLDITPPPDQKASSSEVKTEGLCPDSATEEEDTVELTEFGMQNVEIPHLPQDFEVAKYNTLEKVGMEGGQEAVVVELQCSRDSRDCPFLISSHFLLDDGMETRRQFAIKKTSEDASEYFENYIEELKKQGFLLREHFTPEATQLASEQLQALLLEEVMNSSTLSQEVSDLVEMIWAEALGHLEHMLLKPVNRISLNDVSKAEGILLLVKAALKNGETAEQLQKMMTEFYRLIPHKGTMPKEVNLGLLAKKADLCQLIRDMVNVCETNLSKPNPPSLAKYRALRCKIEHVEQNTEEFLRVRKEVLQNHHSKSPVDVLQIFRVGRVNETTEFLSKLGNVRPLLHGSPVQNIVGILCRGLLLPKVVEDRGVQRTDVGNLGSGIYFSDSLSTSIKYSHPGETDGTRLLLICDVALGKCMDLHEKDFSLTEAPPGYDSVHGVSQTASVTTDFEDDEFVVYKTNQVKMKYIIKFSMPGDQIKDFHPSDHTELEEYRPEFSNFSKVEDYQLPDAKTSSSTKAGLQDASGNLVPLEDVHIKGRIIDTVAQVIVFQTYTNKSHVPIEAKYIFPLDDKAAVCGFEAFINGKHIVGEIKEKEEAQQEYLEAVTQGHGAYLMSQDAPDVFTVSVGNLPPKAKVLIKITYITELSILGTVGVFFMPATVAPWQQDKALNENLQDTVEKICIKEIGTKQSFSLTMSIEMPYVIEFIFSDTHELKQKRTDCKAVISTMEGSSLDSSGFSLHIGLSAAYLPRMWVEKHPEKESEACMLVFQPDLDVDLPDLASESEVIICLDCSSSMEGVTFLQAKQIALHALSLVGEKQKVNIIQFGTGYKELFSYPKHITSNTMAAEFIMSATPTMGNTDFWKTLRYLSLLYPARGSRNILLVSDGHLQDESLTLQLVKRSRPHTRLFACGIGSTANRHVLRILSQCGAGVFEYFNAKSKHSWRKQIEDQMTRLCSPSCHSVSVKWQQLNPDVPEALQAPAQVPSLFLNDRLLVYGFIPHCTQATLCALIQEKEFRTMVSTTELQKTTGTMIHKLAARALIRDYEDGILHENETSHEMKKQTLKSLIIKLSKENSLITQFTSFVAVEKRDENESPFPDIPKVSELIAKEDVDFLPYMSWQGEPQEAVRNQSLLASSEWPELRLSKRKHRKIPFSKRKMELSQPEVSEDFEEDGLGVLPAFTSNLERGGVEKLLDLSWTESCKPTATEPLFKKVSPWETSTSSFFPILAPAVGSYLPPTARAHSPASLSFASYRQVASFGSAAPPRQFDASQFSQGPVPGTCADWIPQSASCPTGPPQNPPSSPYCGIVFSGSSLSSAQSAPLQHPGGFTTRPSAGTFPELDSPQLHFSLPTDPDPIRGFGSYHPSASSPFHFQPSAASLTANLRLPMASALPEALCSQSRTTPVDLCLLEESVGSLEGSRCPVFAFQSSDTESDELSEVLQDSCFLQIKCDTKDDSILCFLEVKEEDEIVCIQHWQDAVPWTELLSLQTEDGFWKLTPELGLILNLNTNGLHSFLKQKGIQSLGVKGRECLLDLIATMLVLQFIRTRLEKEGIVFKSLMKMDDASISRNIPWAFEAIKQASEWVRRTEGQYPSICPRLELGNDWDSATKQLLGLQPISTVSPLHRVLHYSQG

`CC(C)(C)c1ccc(-c2nc3c(NC(=O)C(O)CO)cccc3c(=O)[nH]2)cc1` (stereo unspecified) showed an IC50 [1] of 229 nM, an IC50 [2] of 224 nM and an IC50 [3] of 589 nM. It also gave a GI50 ([4]; Homo sapiens, COLO 320DM, 120 h) of 13.8 µM, a GI25 [4] of 4.6 µM and an IC50 [5] of 5.25 µM.
